How the values were obtained:
PDE8 = PDE8 enzymatic assay equivalent to that described for PDE7; assay type: biochemical
MG7 microglial cells = test: In vitro model of microglial activation: interleukin-1β secretion by LPS-activated MG7 cells (ELISA); assay type: cell-based, mouse
Procedure: The compounds according to the invention have been evaluated in an in vitro model of microglial activation. After activation by lipopolysaccharide (LPS), the microglial cells secrete large amounts of interleukin-1, which amounts can be quantified by specific assaying in the cell supernatants.
Cultures of microglial cells of the MG7 line derived from the mouse cortex are incubated in the presence of variable concentrations of compounds according to the invention. After incubating at 37° C. for 1 hour, the cells are brought together with LPS, which induces the production of interleukin-1. After treating for 24 h, the amounts of interleukin-1β are measured in the culture supernatants by ELISA assay.

IC50 (PDE8) [nM]	SMILES	inhibition at 3 µM (MG7 microglial cells; Mus musculus, at 3 μM, MG7 microglial cells activated by LPS, 24 h, read-out: maximum inhibitory effect on secretion of interleukin-1β) [%]	secretion of interleukin-1β by MG7 microglial cells activated by LPS (MG7 microglial cells; variable concentrations, 1 h preincubation, LPS 24 h)
140	COc1ccc(Cn2c(=O)c3cc(OC(CF)CF)ccc3n(C3CCN(C=O)CC3)c2=O)cc1OC [No. 11, 4-[3-(3,4-dimethoxybenzyl)-6-[2-fluoro-1-(fluoromethyl)ethoxy]-2,4-dioxo-3,4-dihydroquinazolin-1(2H)-yl]piperidine-1-carbaldehyde]	–	–
15	N#Cc1cc(Cn2c(=O)c3cc(OC(CF)CF)ccc3n(C3CCN(C=O)CC3)c2=O)ccc1-c1ccccc1 [No. 294, 4-({6-[2-fluoro-1-(fluoromethyl)ethoxy]-1-(1-formylpiperidin-4-yl)-2,4-dioxo-1,4-dihydroquinazolin-3(2H)-yl}methyl)biphenyl-2-carbonitrile]	–	–
–	O=CN1CCC(n2c(=O)n(Cc3ccc(-c4cccs4)cc3)c(=O)c3cc(OC(CF)CF)c(F)cc32)CC1 [No. 297, 4-{7-fluoro-6-[2-fluoro-1-(fluoromethyl)ethoxy]-2,4-dioxo-3-(4-(thiophen-2-yl)benzyl)-3,4-dihydroquinazolin-1(2H)-yl}piperidine-1-carbaldehyde]	47	significantly decreases, in a concentration-dependent fashion
